Measurements reported in publication PMC10759609, “A novel PDPN antagonist peptide CY12-RP2 inhibits melanoma growth via Wnt/β-catenin and modulates the immune cells” (Journal of Experimental & Clinical Cancer Research : CR, 2024).

What was measured:
[1] = tested on: A875 PDPN overexpression cells; assay: Wound healing, PDPN-overexpressing A875 cells; format: cell-based; conditions: A875 with PDPN overexpression
Experimental: (§1) A375 GFP, A875 GFP, A375 PDPN^−/−, and A875 PDPN^+/+ cells were all seeded in 12-well plates at a density of 5 × 10^5 cells/well. When the cells reached 100% confluence the next day, the straight wound was scraped in each cultured well with a 20 µL pipette tip. Then the cells were washed repeatedly with complete DMEM to remove the cellular debris, and the medium was changed to a low serum medium containing 0.05% FBS. The scratch-treated cells were subsequently cultured for an additional indicated time and imaged at 0 h, 12 h, 24 h and 48 h. Quantification of wound closure was accomplished by measuring the distance between the phase contrast images’ anterior edges of the contralateral surfaces using ImageJ software. As for peptide (CY12-RP2) function experiments, images of phase contrast for A375 GFP and A875 GFP cells were captured at 0 h before peptide administration. The cells were then treated with CY12-RP2 (0 μM, 5 μM, 25 μM) for 24 h or 48 h, and then images were acquired again. Handling of the experimental results were carried out as previously described.
(§2) To confirm whether PDPN could affect migration and invasion of melanoma cells in wnt/β-catenin signaling pathway-dependent manner, A375 cells with PDPN knockdown were treated with a Wnt/β-catenin signaling pathway agonist (SKL2001) and PDPN overexpression A875 cells were treated with an inhibitor (IWR1). […]

[2] = tested on: EMT in A875 PDPN overexpression cells; assay: Western blot EMT proteins, PDPN-overexpressing A875 cells; format: cell-based
Experimental: (§3) Melanoma cells were cultured in a 60 mm dish with a complete medium and various peptide concentrations (0 μM, 5 μM, 25 μM). Protein was extracted after cells were cultured or treated for 48 h using protein lysis buffer, separated using a 10% or 15% Bis–Tris PAGE gel (Epizyme Biomedical Technology, Shanghai, China), and transferred onto a PVDF membrane (Thermo Fisher Scientific) according to standard techniques. The Western blots were imaged using Bio-rad Chemidoc MP and quantified using ImageJ software (NIH).
(§4) To confirm whether PDPN could affect migration and invasion of melanoma cells in wnt/β-catenin signaling pathway-dependent manner, A375 cells with PDPN knockdown were treated with a Wnt/β-catenin signaling pathway agonist (SKL2001) and PDPN overexpression A875 cells were treated with an inhibitor (IWR1). […] Furthermore, the levels of EMT positively correlated proteins, including N-cadherin, vimentin and snail were all suppressed, while E-cadherin was increased in A375 cells transfected with LV-shPDPN, and these phenomena were reversed following treatment with SKL2001 (Fig. S2E). In contrast, in the A875 cells, the activation of EMT by PDPN overexpression was blocked by IWR1 (Fig. S2E).

[3] = tested on: A875 PDPN overexpression cells; assay: Transwell, PDPN-overexpressing A875 cells; format: cell-based; conditions: A875 with PDPN overexpression
Experimental: (§5) For invasion assay, matrigel (Corning, New York, USA) was coated on the upper surface of the upper chamber. The upper chamber was filled with DMEM medium containing 2% FBS, while the lower chamber contained a medium supplemented with 20% FBS. In brief, melanoma cells (A375 GFP, A875 GFP, A375 PDPN^−/−, and A875 PDPN^+/+ cells) were seeded in the upper chamber of the transwell plate (Corning, New York, USA) at about 5 × 10^4 cells/well with the medium as described above. For peptide functionality experiments, A375 and A875 cells were seeded in the upper chamber of the transwell plate at a density of 5 × 10^4 cells/well with various peptide concentrations (0 μM, 5 μM, 25 μM). Transwell inserts were fixed using 4% paraformaldehyde after 48 h cell invasion, and crystalline violet was used for staining. The quantities of invading cells were quantified using ImageJ software (NIH).
as §2

[4] = tested on: A375 PDPN knockdown cells; assay: Wound healing, PDPN-knockdown A375 cells; format: cell-based; conditions: A375 with PDPN knockdown
Experimental: as §1, §2

[5] = tested on: A375 PDPN knockdown cells; assay: Transwell, PDPN-knockdown A375 cells; format: cell-based; conditions: A375 with PDPN knockdown
Experimental: as §5, §2

melanoma cells [6] = assay: Wound healing with SKL2001, melanoma cell lines; format: cell-based; conditions: combined with CY12-RP2
Experimental: as §1, with “The cells were then treated with CY12-RP2 (0 μM, 5 μM, 25 μM) for 24 h or 48 h, and then images were acquired again. Handling of the experimental results were carried out as previously described.” left out
(§6) (A) TUNEL analysis of apoptosis was conducted on orthotopic xenografts tumor sections using fluorescence staining. […] (B) Fluorescence staining of Ki67 was carried out on orthotopic xenograft tumor sections.
(§7) The power field scale bar, 100 μm. (C) Serum His-CY12-RP2 levels of the orthotopic xenografts mice treated by various dosage of CY12-RP2 were measured by His-ELISA kit. […]
(§8) kit. (E) Serum ALT, AST, TG, and γ-GT levels of the orthotopic xenografts model were measured by ELISA. […]

melanoma cells [7] = assay: Transwell invasion with SKL2001, melanoma cell lines; format: cell-based; conditions: combined with CY12-RP2
Experimental: as §5, with “(NIH). […]” for “(NIH).”
as §6, §7, §8

[8] = tested on: EMT proteins in A375 LV-shPDPN cells; assay: Western blot EMT proteins, PDPN-knockdown A375 cells; format: cell-based
Experimental: as §3, §4

[9] = tested on: Wnt/β-catenin signaling pathway; assay: Western blot, EMT and Wnt/β-catenin pathway, melanoma cells; format: cell-based; conditions: combined with CY12-RP2; SKL2001 50 μM; Western blot
Experimental: as §3
Fig. S4: The inhibition of cells metastasis and invasion by CY12-RP2 can be […]
(A, B) The inhibition of CY12-RP2 on the migration capacity of melanoma cell lines was reversed by SKL2001 (A). Statistical analysis was performed to determine the migrated distance (B). The power field scale bar, 100 μm. (C, D) Effect of CY12-RP2 on the invasive ability of melanoma cell lines were reversed by SKL2001 (C). […]
as §6, §7, §8

melanoma = conditions: in vitro and in vivo; cited from earlier work
From the text: Therapeutic peptides are a novel and promising type of anti-cancer drug, due to several important advantages over proteins or antibodies: they are molecularly small, easy to synthesize, and capable of penetrating cell membranes; they also have high biological activity, affinity, chemical diversity, and specificity. Phage display technology is a high-throughput screening technique that greatly amplifies the application of directional evolution techniques for antibody and peptide modification screening, and first described in 1985 by Smith. Phage display inserts th ...

O=C(Nc1cccc2cccnc12)c1ccc(N2C(=O)[C@@H]3[C@H](C2=O)[C@@H]2C=C[C@H]3C2)cc1 [IWR1]
promotion of migration by PDPN overexpression [1]: inhibited
activation of EMT by PDPN overexpression [2]: blocked
increase of invasion mediated by PDPN overexpression [3]: abrogated

O=C(NCCCn1ccnc1)c1cc(-c2ccco2)on1 [SKL2001]
inhibition of migration by PDPN knockdown [4]: abolished
decrease of invasion mediated by PDPN knockdown [5]: abrogated
effect of SKL2001 on CY12-RP2 inhibition of migration (melanoma cells [6]): significantly reversed
effect of SKL2001 on CY12-RP2 inhibition of invasion (melanoma cells [7]): significantly reversed
changes of N-cadherin, vimentin, snail and E-cadherin by LV-shPDPN [8]: reversed
effect of SKL2001 on CY12-RP2 inhibition of EMT and Wnt/β-catenin signaling [9]: significantly reversed

[-CSSRTMHHC-] [peptide screened by C7C phage display library]
melanoma growth and invasion (melanoma): suppress melanoma growth and invasion both in vitro and in vivo
